Source: patent publication US9737517B2, “Pharmaceutical use of hexahydro-dibenzo[a,g]quinolizine compounds” (SHANGHAI INSTITUTE OF MATERIA MEDICA, CHINESE ACADEMY OF …, priority 2013, dated 2017)
Converted amounts (≈) assume the structure as drawn. “And” between values parts separate entries of the source, which are not always exact repeats. Equal values may be shown once. Read-outs that look alike come from different tables or passages of the source.

Columns and labels:
[1] = Pharmacokinetics study in rats (gavage and intravenous); format: in vivo, SD rats; conditions: rat
Experimental: (§1) Gavage administration to rats. 3 healthy SD rats (male, weighed 200-220 g) were fasted for 12 hours before the administration but were allowed to drink water. Compound DC037009 was formulated with 10% DMSO/10% Tween 80/80% saline and was administered by 20 mg/kg dose and the dosing volume was 10 mL/kg.
as §1, with “Intravenous administration” for “Gavage administration”, “administered via the rat tail vein injection” for “administered”, “by 10” for “by 20”, “was 5” for “was 10”
Intravenous administration: 5 min, 0.25, 0.5, 1.0, 2.0, 3.0, 5.0, 7.0, 9.0 and 24 hrs after administration.
At the above time points, 0.3 mL blood obtained from post-eye venous plexus of rat was set into a heparinized tube, which was 11000 rpm centrifuged for 5 min, and the plasma was separated and frozen at −20° C. in a refrigerator.

hERG = hERG (Homo sapiens, UniProt Q12809); assay: Inhibition effect on hERG; format: cell-based
rat seminal vesicle = assay: Seminal vesicle contraction caused by electrical stimulation of hypogastric nerve in normal rats; format: in vivo; conditions: P>0.05
Description: Effect of DC037009 on Seminal Vesicle Contraction Caused by Electrical Stimulation of Hypogastric Nerve in Normal Rats

[2] = Solubility in different pH solution and pH changes of the solution; format: physicochemical
pKa determination = format: physicochemical
[3] = male, SD, plasma, po, 20 mg/kg, gavage 20 mg/kg, individual animals 1-3
[4] = male, SD, plasma, po, 20 mg/kg, gavage 20 mg/kg, mean of 3
[5] = gavage 20 mg/kg, individual animals 1-3, 20 mg/kg
[6] = pH = 1 solution after adding compound
[7] = pH = 2 solution after adding compound
[8] = pH = 4 solution after adding compound
[9] = pH = 6 solution after adding compound
[10] = pH = 8 solution after adding compound

hERG, sequence (Q12809 whole entry): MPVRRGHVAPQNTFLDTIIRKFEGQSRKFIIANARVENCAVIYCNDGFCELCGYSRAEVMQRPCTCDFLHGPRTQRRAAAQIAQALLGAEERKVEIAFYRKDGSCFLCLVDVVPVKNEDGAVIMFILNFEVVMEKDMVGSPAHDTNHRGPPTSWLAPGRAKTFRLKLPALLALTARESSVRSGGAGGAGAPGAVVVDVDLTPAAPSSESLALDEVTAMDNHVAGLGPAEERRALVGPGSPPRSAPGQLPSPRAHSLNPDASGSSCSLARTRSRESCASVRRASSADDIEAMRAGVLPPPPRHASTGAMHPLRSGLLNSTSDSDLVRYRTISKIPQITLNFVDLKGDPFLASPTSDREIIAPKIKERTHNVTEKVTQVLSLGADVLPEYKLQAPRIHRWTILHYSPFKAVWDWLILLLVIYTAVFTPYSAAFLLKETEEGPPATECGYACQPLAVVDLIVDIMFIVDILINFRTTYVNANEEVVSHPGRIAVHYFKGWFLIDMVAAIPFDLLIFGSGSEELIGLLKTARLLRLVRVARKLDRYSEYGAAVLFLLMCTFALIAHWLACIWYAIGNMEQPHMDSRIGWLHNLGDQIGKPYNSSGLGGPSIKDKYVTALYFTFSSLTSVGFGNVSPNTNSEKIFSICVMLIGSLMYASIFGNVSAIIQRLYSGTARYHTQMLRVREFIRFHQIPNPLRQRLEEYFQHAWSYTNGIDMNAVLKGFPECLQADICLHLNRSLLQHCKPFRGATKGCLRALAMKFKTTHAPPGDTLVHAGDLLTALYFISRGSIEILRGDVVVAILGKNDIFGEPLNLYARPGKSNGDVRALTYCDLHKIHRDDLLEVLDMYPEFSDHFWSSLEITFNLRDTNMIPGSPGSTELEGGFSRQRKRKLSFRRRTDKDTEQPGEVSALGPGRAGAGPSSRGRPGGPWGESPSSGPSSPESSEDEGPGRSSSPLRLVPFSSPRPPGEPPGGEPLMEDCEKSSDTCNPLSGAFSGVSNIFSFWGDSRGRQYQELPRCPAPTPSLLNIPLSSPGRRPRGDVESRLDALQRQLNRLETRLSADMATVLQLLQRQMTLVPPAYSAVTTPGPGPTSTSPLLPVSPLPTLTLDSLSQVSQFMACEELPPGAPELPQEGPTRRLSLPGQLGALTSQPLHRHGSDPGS

**Q.** What does the source list for `COc1cc2c(cc1OC)CN1CCc3cc4c(cc3[C@@H]1C2)OCO4` [DC037009, S-(−)-2,3-methylenedioxy-10,11-dimethoxy-5,8,13,13a-tetrahydro-6H-dibenzo[a,g]quinolizine]?
**A.** bioavailability ([1]; male, SD, plasma, oral, gavage 20 mg/kg versus intravenous 10 mg/kg): 34.2%; clearance ([1]; male, SD, plasma, intravenous injection 10 mg/kg, read-out: plasma clearance rate CL (converted)): 39.7 mL/min/kg; Vd ([1]; male, SD, plasma, intravenous injection 10 mg/kg, read-out: volume distribution stead state Vss): 3.49 ± 0.24 L/kg; half-life ([1]; male, SD, plasma, iv, 10 mg/kg, intravenous injection 10 mg/kg): 5.44 ± 0.85 h; AUC0-t ([1]; male, SD, plasma, iv, 10 mg/kg, intravenous injection 10 mg/kg, read-out: AUC0-t): 4200 ± 141 ng·h/mL; AUC(0-inf) [1, 3]: 2630 ng·h/mL; half-life [1, 3]: 4.2 h; AUC0-t ([1]; male, SD, plasma, po, 20 mg/kg, gavage 20 mg/kg, individual animals 1-3, read-out: AUC0-t): 2570 ng·h/mL; Cmax ([1]; male, SD, plasma, po, 20 mg/kg, gavage 20 mg/kg, individual animals 1-3, read-out: Cmax): 289 ng/mL; MRT ([1]; male, SD, plasma, po, 20 mg/kg, gavage 20 mg/kg, individual animals 1-3, read-out: MRT): 6.45 h; Tmax ([1]; male, SD, plasma, po, 20 mg/kg, gavage 20 mg/kg, individual animals 1-3, read-out: Tmax): 0.5 h; AUC(0-inf) [1, 4]: 2890 ng·h/mL; half-life [1, 4]: 3.26 ± 0.82 h; AUC0-t ([1]; male, SD, plasma, po, 20 mg/kg, gavage 20 mg/kg, mean of 3, read-out: AUC0-t): 2870 ± 798 ng·h/mL; Cmax ([1]; male, SD, plasma, po, 20 mg/kg, gavage 20 mg/kg, mean of 3, read-out: Cmax): 453 ± 147 ng/mL; MRT ([1]; male, SD, plasma, po, 20 mg/kg, gavage 20 mg/kg, mean of 3, read-out: MRT): 5.04 h; Tmax ([1]; male, SD, plasma, po, 20 mg/kg, gavage 20 mg/kg, mean of 3, read-out: Tmax): 0.67 ± 0.29 h; AUC0-t [1, 5]: 2260 ng·h/mL and 3771 ng·h/mL; AUC0-∞ [1, 5]: 2265 ng·h/mL and 3779 ng·h/mL; Cmax [1, 5]: 494 ng/mL and 575 ng/mL; MRT [1, 5]: 4.00 h and 4.67 h; Tmax [1, 5]: 1.00 h; t1/2 [1, 5]: 2.89 h and 2.70 h; AUC0-t ([1]; gavage 20 mg/kg, mean of 3, 20 mg/kg): 2260 ng·h/mL; antagonistic activity to α1A-receptor relative to inhibitory activity on hERG (hERG): 272 folds; IC50 (hERG; hERG): 8.1 µM; Maximum inhibition rate (%) (hERG; hERG): 84.7%; effect on contraction amplitude and area under contraction curve in rat seminal vesicle induced by electrical stimulation (rat seminal vesicle): no significant inhibitive effect; pH of solution after adding compound [2]: would increase; solubility in acidic solution compared with alkaline solution [2]: greater than that in alkaline solution; solubility ([2]; pH 2 solution, pH 2, simulated gastric fluid, pH = 2 solution, read-out: Solubility (1)): > 1000 µg/mL; solubility ([2]; pH 2 solution, pH 2, simulated gastric fluid, pH = 2 solution, read-out: Solubility (2)): > 1000 µg/mL; solubility ([2]; pH 4 solution, pH 4, aqueous buffer, pH = 4 solution, read-out: Solubility (1)): 401 µg/mL (≈ 1180 µM); solubility ([2]; pH 4 solution, pH 4, aqueous buffer, pH = 4 solution, read-out: Solubility (2)): 403 µg/mL (≈ 1190 µM); Dissolving capacity ([2]; pH = 1 solution): Slightly soluble; pH value (1) [2, 6]: 1.09; pH value (2) [2, 6]: 1.03; solubility ([2]; pH = 1 solution, pH 1, simulated gastric fluid, pH = 1 solution, read-out: Solubility (1)): > 1000 µg/mL; solubility ([2]; pH = 1 solution, pH 1, simulated gastric fluid, pH = 1 solution, read-out: Solubility (2)): > 1000 µg/mL; Dissolving capacity ([2]; pH = 2 solution): Slightly soluble; pH value (1) [2, 7]: 2.02; pH value (2) [2, 7]: 2.07; Dissolving capacity ([2]; pH = 4 solution): Slightly soluble; pH value (1) [2, 8]: 5.02; pH value (2) [2, 8]: 5.10; Dissolving capacity ([2]; pH = 6 solution): Sparingly; pH value (1) [2, 9]: 6.11; pH value (2) [2, 9]: 6.14; solubility ([2]; pH = 6 solution, pH 6, aqueous buffer, pH = 6 solution, read-out: Solubility (1)): 46 µg/mL (≈ 136 µM); solubility ([2]; pH = 6 solution, pH 6, aqueous buffer, pH = 6 solution, read-out: Solubility (2)): 50.2 µg/mL (≈ 148 µM); Dissolving capacity ([2]; pH = 8 solution): Sparingly; pH value (1) [2, 10]: 8.06; pH value (2) [2, 10]: 8.07; solubility ([2]; pH = 8 solution, pH 8, aqueous buffer, pH = 8 solution, read-out: Solubility (1)): < 10 µg/mL; solubility ([2]; pH = 8 solution, pH 8, aqueous buffer, pH = 8 solution, read-out: Solubility (2)): < 10 µg/mL; pKa (pKa determination; methanol, solvent CH3OH, read-out: pKa (CH3OH)): 6.81; pKa (pKa determination; water, solvent H2O, read-out: pKa (H2O)): 7.28
